Experimental data as given in US20090264528A1, “SERINE PALMITOYLCOA TRANSFERASE (SPT) INHIBITION BY MYRIOCIN OR GENETIC DEFICIENCY DECREASES CHOLESTEROL ABSORPTION” (The Research Foundation of State University of New York, priority 2008, published 2009).

How the values were obtained:
triglyceride absorption = assay: [3H]triolein-derived counts in plasma (triglyceride absorption); format: in vivo, mouse; conditions: myriocin treated animals (WT, apoE KO), within 24 hours
Method: FIGS. 5A-I depict several graphs that illustrate that SPT deficient mice absorbed less cholesterol. Mice (n=6, 10-12 weeks old) were fasted for 5 hours and gavaged with 0.1 microCi [^14C]cholesterol and 0.2 microCi [^3H]sitostanol with 0.5 mg unlabeled cholesterol dissolved in 15 microl of olive oil. Feces were collected after 24 hours and lipids were extracted for counting (FIGS. 5A, 5D, and 5G, cholesterol absorption, WT vs WT/myriocin; apoE KO vs apoE KO/myriocin; WT vs Sptlc1^+/−, respectively). Blood was collected during the 24 hour period (Panels B, E, and H, [^14C]cholesterol in blood, WT vs WT/myriocin; apoE KO vs apoE KO/myriocin; WT vs Sptlc1^+/−, respectively). To test specificity, the mice were gavaged with 0.2 microCi [^3H]triolein together with 0.5 mg/ml cold cholesterol. Blood was collected during the 24 hour period (FIGS. 5C, 5F, and 5I, [^3H] glycerolipids in blood, WT versus WT/myriocin; apoE KO versus apoE KO/myriocin; WT versus Sptlc1^+/−, respectively). Value is mean±SD. *P<0.01.
To investigate whether the effect of SPT deficiency was specific to cholesterol, experimental mice were fed with […] [^3H]triolein instead of [^14C]cholesterol, and blood was collected at different time points within 24 hours.

cholesterol absorption = assay: Absorption of [14C]cholesterol after a single gavage (intestine, liver, bile, plasma); format: in vivo, mouse; conditions: 24 hours after single gavage, mean ± SD, n=5
Method: Cholesterol absorption studies: A classical fecal dual-isotope ratio method was used for the cholesterol absorption study. Briefly, a mixture of [^14C]-labeled (0.1 microCi) and unlabeled cholesterol (0.5 mg) and [^3H]sitostanol (0.2 microCi) in 15 microl of olive oil was fed to mice (10-12 weeks old). Feces were collected for 24 hours. The cholesterol absorption ratio was calculated as: % absorption={1−[fecal(^14C/^3H)]/administered(^14C/^3H)}×100. In some cases, mice were sacrificed, plasma collected, and radioactivity counted. Small intestines (from duodenum to ileum) were washed and cut into 2 cm segments. Each of these, as well as a part of the liver, were digested and radioactivity counted individually.
Next, the amounts of [^14C]cholesterol present in the intestine and those transported to plasma, liver, and bile in 24 hours were measured after a single bolus of radiolabeled cholesterol.

enterocytes = assay: Mouse enterocyte lipid measurement; format: in vivo
Method: The mechanisms responsible for decreased cholesterol absorption in myriocin-treated or Sptlc1^+/− mice were explored. First, lipid levels were measured in enterocytes isolated from myriocin-treated and Sptlc1^+/− mice, as well as controls.

ABCG5 = assay: Western blot of small intestine homogenates, ABCG5; format: in vivo, mouse; conditions: WT and apoE KO mice, compared with nontreated animals
Method: (§1) FIG. 8 depicts that SPT deficiency decreased NPC1L1 and ABCA1, and increased ABCG5 in mouse small intestine. Tissue homogenates were prepared as described in Methods, and equal amounts of homogenates from each mouse were pooled in each group (n=5). A total of 50 microg pooled sample from each group was immunoblotted with antibodies against NPC1L1, ABCA1, and ABCG5. Immunoblots of beta (β)-actin were used as a loading control.
(§2) Preparation and Western blot analysis of small intestine homogenates: A total of 50-100 mg of small intestine sample was homogenized and lysed proteins were immunoblotted, as previously described, (3) with a polyclonal rabbit antihuman NPC1L1 antiserum 69B, a polyclonal rabbit antimouse ABCG5 antiserum, a polyclonal antimouse ABCA1 antibody, and a monoclonal mouse anti-(beta)β-actin antibody.
(§3) Next, Western blot measurements of NPC1L1 and ABCG5/G8 were completed, where the measurement were located in apical membranes of the enterocytes. […] Also, ABCA1 was measured, which is located in the basal membranes of the enterocytes and is involved in cholesterol secretion.

ABCA1 = assay: Western blot of small intestine homogenates, ABCA1; format: in vivo, mouse; conditions: SPT-deficient small intestines (myriocin-treated, FIG. 6A) compared with controls
Method: as §1, §2, §3

ABCG5 mRNA = assay: Real-time PCR, ABCG5 mRNA; format: in vivo, mouse; conditions: for increase of ABCG5 mRNA levels compared with controls: small intestine, P<0.01
Method: (§4) FIGS. 9A-F depict that Mouse small intestine and liver NPC1L1, ABCG5/G8, and ABCA1 mRNA measurements. NPC1L1, ABCG5/G8, and ABCA1 mRNA levels were measured by real-time PCR as described in “Methods and Materials.” FIG. 9A, jejunum from WT mice with or without myriocin treatment; FIG. 9B, jejunum from apoE KO mice with or without myriocin treatment; FIG. 9C, jejunum from WT and Sptlc1^+/− mice; FIG. 9D, liver from WT mice with or without myriocin treatment; FIG. 9E, liver from apoE KO mice with or without myriocin treatment; FIG. 9F, liver from WT and Sptlc1^+/− mice. Values are mean±SD, n=5. *P<0.01.
(§5) Real-time PCR examined genes' expression: Mice were sacrificed by cervical dislocation. Jejunum was dissected, and total RNA extracted with Trizol (Invitrogen). cDNA was synthesized with an Invitrogen kit. Polymerase chain reaction (PCR) was performed on a total volume of 20 microl with the sybergreen kit from Applied Biosystems, 18S being used as an internal control. The amplification program consisted of activation at 95 degrees C. for 10 minutes, followed by 40 amplification cycles: 95 degrees C. for 15 seconds, 60 degrees C. for 1 minute. Each sample was triplicated. The genes' relative expression was expressed as mean±SD. The primers are located in the below table which lists the name, sequence, and sequence identification number.
(§6) For further elucidation of the possible mechanisms for cholesterol absorption reduction in the SPT-deficient small intestine, NPC1L1, ABCG5/G8, and ABCA1 mRNA levels in myriocin-treated WT, apoE KO, and Sptlc1^+/− mice, as well as in controls were measured. […] Moreover, intestinal MTP activity was not influenced by SPT deficiency (data not shown). Also, the liver mRNA levels were measured to find that myriocin treatment or Sptlc1 deficiency has no influence on ABCG5/G8 mRNA levels […]. […] NPC1L1 mRNA in WT or Sptlc1^+/− livers were not detected (data not shown).

ABCA1 mRNA = assay: Real-time PCR, ABCA1 mRNA; format: in vivo, mouse; conditions: for decrease of ABCA1 mRNA levels: liver, P<0.05; for decrease of ABCA1 mRNA levels compared with controls: small intestine, P<0.01
Method: as §4, §5, §6

[1] = myriocin-treated mice vs controls

SMILES: CCCCCCC(=O)CCCCCC/C=C/C[C@@H](O)[C@H](O)[C@@](N)(CO)C(=O)O [Myriocin, myriocin]
- [3H]triolein-derived counts in the plasma vs controls (triglyceride absorption): No significant changes
- [14C]cholesterol in Bile (cholesterol absorption; ApoE KO mice): 2284 ± 521 dpm/ml
- [14C]cholesterol in Intestine (cholesterol absorption; ApoE KO mice): 4158 ± 499 dpm/g
- [14C]cholesterol in Liver (cholesterol absorption; ApoE KO mice): 3337 ± 649 dpm/g
- [14C]cholesterol in Plasma (cholesterol absorption; ApoE KO mice): 1350 ± 142 dpm/ml
- [14C]cholesterol in Bile (cholesterol absorption; WT mice): 2108 ± 394 dpm/ml
- [14C]cholesterol in Intestine (cholesterol absorption; WT mice): 5237 ± 478 dpm/g
- [14C]cholesterol in Liver (cholesterol absorption; WT mice): 4131 ± 575 dpm/g
- [14C]cholesterol in Plasma (cholesterol absorption; WT mice): 1734 ± 390 dpm/ml
- enterocyte Chol (cholesterol) (enterocytes; WT mice, mean ± SD, N=5-7): 16.2 ± 1.2 microg/mg protein
- enterocyte PC (phosphatidylcholine) (enterocytes; WT mice, mean ± SD, N=5-7): 27.9 ± 2.3 microg/mg protein
- enterocyte SM (sphingomyelin) (enterocytes; WT mice, mean ± SD, N=5-7): 6.2 ± 0.9 microg/mg protein
- enterocyte TG (triglycerol) (enterocytes; WT mice, mean ± SD, N=5-7): 11.1 ± 1.9 microg/mg protein
- SM levels in enterocytes, in words (enterocytes; [1]): significantly decreases
- cellular cholesterol, phosphatidylcholine, or triglyceride levels in enterocytes, in words (enterocytes; [1]): no effect
- ABCG5 protein mass in small intestine (ABCG5): increased
- ABCA1 protein in small intestine (ABCA1): decreased
- ABCG5 mRNA levels (printed ABCG5/G8) (ABCG5 mRNA; liver): no influence
- increase of ABCG5 mRNA levels compared with controls (ABCG5 mRNA; WT mice): 52%
- increase of ABCG5 mRNA levels compared with controls (ABCG5 mRNA; apoE KO mice): 69%
- decrease of ABCA1 mRNA levels (ABCA1 mRNA; WT mice): 20%
- decrease of ABCA1 mRNA levels (ABCA1 mRNA; apoE KO mice): 18%
- decrease of ABCA1 mRNA levels compared with controls (ABCA1 mRNA; WT mice): 48%
- decrease of ABCA1 mRNA levels compared with controls (ABCA1 mRNA; apoE KO mice): 39%
